The target in one assay is T1, ovine COX-1 (Ovis aries, UniProt P05979).
T1 construct: purchased 560131
T1 sequence (P05979 25-600): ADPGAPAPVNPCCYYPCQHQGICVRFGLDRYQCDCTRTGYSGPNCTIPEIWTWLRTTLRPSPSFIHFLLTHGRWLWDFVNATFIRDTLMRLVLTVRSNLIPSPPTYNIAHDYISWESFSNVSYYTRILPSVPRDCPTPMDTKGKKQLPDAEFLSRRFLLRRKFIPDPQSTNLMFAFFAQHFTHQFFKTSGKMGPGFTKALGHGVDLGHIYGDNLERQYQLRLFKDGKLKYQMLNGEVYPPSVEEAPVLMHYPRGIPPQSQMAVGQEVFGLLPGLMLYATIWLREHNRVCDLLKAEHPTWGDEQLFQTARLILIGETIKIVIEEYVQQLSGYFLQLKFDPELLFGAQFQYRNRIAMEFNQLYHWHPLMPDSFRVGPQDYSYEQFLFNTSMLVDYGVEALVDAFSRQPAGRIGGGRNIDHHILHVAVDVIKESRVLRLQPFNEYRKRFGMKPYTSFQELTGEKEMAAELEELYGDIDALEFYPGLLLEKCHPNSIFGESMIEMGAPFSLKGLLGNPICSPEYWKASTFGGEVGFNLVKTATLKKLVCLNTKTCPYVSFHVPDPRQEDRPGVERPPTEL
The experiment in a line: COX Inhibitor Screening Assay kit, COX-1. The assay is classed as biochemical.

The target of the next assay is T2, human recombinant COX-2 (Homo sapiens, UniProt P35354).
T2 construct: purchased 560131
T2 sequence (P35354 18-604): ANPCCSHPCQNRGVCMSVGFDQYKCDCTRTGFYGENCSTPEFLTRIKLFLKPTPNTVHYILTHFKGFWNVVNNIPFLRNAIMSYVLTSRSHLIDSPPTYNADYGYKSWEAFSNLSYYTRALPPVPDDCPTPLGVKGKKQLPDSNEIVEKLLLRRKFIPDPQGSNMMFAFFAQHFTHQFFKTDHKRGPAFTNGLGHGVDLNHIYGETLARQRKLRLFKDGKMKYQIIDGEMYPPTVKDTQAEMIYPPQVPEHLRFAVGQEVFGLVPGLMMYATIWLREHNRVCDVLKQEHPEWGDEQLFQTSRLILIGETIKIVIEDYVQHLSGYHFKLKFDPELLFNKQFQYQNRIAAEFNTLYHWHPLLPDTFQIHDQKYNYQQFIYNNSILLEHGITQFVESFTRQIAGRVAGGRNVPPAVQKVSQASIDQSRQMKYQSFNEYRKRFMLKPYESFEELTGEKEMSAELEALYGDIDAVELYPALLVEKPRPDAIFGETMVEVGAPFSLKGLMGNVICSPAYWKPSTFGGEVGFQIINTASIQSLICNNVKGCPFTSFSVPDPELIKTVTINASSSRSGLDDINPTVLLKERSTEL
The experiment in a line: biochemical. The assay is classed as biochemical. To be noted: for IC50: average of 3 independent runs, read-out: COX-2 IC50 (µM)±SE.

A further assay has as its target PAS of EeAChE (Electrophorus electricus, UniProt O42275). The experiment in a line: Propidium iodide displacement from the PAS of AChE (fluorescence). It counts as binding. The following applies: EeAChE 7 µM, propidium iodide 8 µM; for % Displacement of propidium iodide 290 µM: compound 290 µM; for % Displacement of propidium iodide 340 µM: compound 340 µM.
In assay [1] the target is T3, AChE (Electrophorus electricus, UniProt O42275). The experiment in a line: biochemical.
T3 sequence (O42275 24-633): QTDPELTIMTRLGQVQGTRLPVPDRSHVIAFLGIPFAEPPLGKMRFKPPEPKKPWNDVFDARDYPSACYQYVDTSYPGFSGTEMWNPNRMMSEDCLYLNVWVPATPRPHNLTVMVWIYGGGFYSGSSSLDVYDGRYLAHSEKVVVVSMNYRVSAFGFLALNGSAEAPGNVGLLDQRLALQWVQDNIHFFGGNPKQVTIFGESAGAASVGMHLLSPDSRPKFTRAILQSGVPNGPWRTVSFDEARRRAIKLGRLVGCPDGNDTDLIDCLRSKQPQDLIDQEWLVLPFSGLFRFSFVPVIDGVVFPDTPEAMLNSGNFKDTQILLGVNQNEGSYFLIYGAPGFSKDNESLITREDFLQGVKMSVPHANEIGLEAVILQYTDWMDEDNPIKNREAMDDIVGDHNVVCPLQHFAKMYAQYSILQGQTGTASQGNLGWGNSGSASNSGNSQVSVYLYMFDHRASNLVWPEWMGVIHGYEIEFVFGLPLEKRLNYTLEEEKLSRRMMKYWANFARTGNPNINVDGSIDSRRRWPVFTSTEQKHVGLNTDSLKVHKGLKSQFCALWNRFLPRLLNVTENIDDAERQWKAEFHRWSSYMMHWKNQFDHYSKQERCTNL
For a further assay, the system named is Tc-AChE. The experiment in a line: Kinetic characterisation of AChE inhibition (Lineweaver-Burk). It counts as biochemical, Torpedo californica.
Assay [2] deals with T3, AChE. The following applies: read-out: AChE IC50 (µM)±SE; average of 3 independent runs.
The mark [3] stands for this setting: selectivity index, COX-1 IC50 / COX-2 IC50.
Setting [4] is: read-out: COX-1 IC50 (µM)±SE, average of 3 independent runs.

SMILES strings stand for the structures. Like-named read-outs stand apart in the source and are kept apart here.

Sequence of PAS of EeAChE (O42275 24-633): as above
Protocol for PAS of EeAChE: The ability of compounds to competitively displace propidium iodide was evaluated by a fluorescence method[43]. […] Donepezil was used as reference compound. The blank contained propidium iodide of the same concentration in 1 mM Tris-HCl buffer pH 8.0. The measurements were carried out in triplicate on a microplate reader Perkin Elmer VictorX2 (Perkin Elmer, Singapur).
Protocol for Tc-AChE: The rate of enzyme activity was measured at eight different concentrations of substrate acetylthiocholine iodide (ATC).
Data analysis was carried out with SigmaPlot v10.0.

With `CC1(C)OC23CC1CCC2(C)CCC(OC(=O)c1ccccc1)C3CO` (stereo not drawn) [Compound 7], the results for the IC50 against ovine COX-1 and on human recombinant COX-2 were 11.98 ± 0.042 µM and 0.21 ± 0.008 µM, respectively. Also, the “SI(COX-1/COX-2)” value at human recombinant COX-2 (setting [3]) is 57.05.

As to `CC(=O)O[C@@H]1[C@H](OC(=O)c2ccccc2)[C@@]2(C)[C@@H](OC(=O)c3ccccc3)C[C@@H]3[C@@H](OC(C)=O)[C@]2(OC3(C)C)[C@@](C)(O)[C@H]1OC(C)=O` [Compound 11], the IC50 (commonly the concentration that inhibits the measured activity by half) stood at 13.08 ± 0.02 µM against ovine COX-1, 0.09 ± 0.005 µM at human recombinant COX-2 and 30 ± 0.06 µM against AChE [1]. Besides, at PAS of EeAChE, the “% Displacement of propidium iodide 290 µM” value was 12.1 ± 0.7%. Further, at PAS of EeAChE, the “% Displacement of propidium iodide 340 µM” value was found to be 13.4 ± 0.2%. In addition, the “SI(COX-1/COX-2)” value at human recombinant COX-2 is given as 145.33.

As to `CC(=O)OC[C@]12[C@@H](OC(=O)c3ccccc3)[C@H](OC(C)=O)[C@@H]3[C@@H](OC(=O)c4ccccc4)[C@]1(OC3(C)C)[C@@](C)(O)[C@H](OC(C)=O)[C@H](OC(C)=O)[C@@H]2OC(C)=O` [Compound 12, 1α,2α,3α,8α,14-pentaacetoxy-6β,9β-dibenzyloxy-4β-hydroxidihydro-β-agarofuran], the IC50 worked out at 14.2 ± 0.2 µM on ovine COX-1 and 0.84 ± 0.012 µM at human recombinant COX-2. Further, at human recombinant COX-2 (setting [3]), the “SI(COX-1/COX-2)” value worked out at 16.92.

As for `CC(=O)OC1CCC2(C)CCC3CC2(OC3(C)C)C1(C)O` (stereo not drawn) [Compound 5, 3α-acetoxy-4α-hydroxydhydro-β-agarofuran], the results for the half-maximal inhibitory concentration (IC50) on ovine COX-1, on human recombinant COX-2 and on AChE [1] were 13.08 ± 0.02 µM, 0.4 ± 0.0014 µM and 43 ± 0.015 µM, respectively. Moreover, on human recombinant COX-2, the “SI(COX-1/COX-2)” value came out at 32.7.

As for `CC1(C)OC23CC1CCC2(C)CCC(O)C3(C)O` (stereo not drawn) [Compound 4, 3α,4α-dihydroxydihydro-β-agarofuran], it took 14.21 ± 0.035 µM to reach half-maximal inhibition against ovine COX-1 (IC50). Further, on PAS of EeAChE, the “% Displacement of propidium iodide 290 µM” value turned out to be 13.9 ± 0.3% and the “% Displacement of propidium iodide 340 µM” value amounted to 17.6 ± 0.5%. In addition, the “Mode of AChE inhibition” value in the assay with Tc-AChE (Lineweaver-Burk plots, eight concentrations of substrate ATC) is “non-competitive inhibitor”. Besides, the Michaelis constant (Km) (commonly the substrate concentration at which the rate is half of its maximum) with Tc-AChE (unchanged at increasing concentrations of the inhibitor, substrate ATC) came to 110 µM. In addition, on human recombinant COX-2, the “SI(COX-1/COX-2)” value was 37.39 and the IC50 worked out at 0.38 ± 0.007 µM. On AChE [1], this compound displayed an IC50 of 17 ± 0.016 µM.

Turning to `CC(=O)O[C@@H]1[C@@H]2[C@@H](OC(C)=O)[C@]3(OC2(C)C)[C@H](C)CC[C@H](O)[C@@]3(C)[C@H]1OC(=O)c1ccoc1` [Compound 10, 6β,8α-diacetoxy-9β-furoyloxy-1α-hydroxydihydro-β-agarofuran], the half-inhibitory concentration (IC50) is 13.74 ± 0.1 µM on ovine COX-1 (setting [4]), 740 ± 0.045 µM on AChE [2] and 0.29 ± 0.0003 µM at human recombinant COX-2. On human recombinant COX-2, the “SI(COX-1/COX-2)” value worked out at 47.37.

As for `CC1(C)OC23CC1CCC2(C)CCC(OC(=O)c1ccco1)C3CO` (stereo not drawn) [Compound 6, 3α-furoyloxy-15-hydroxydihydro-β-agarofuran], the IC50 against ovine COX-1 was determined as 12.69 ± 0.035 µM; at human recombinant COX-2 it was 0.13 ± 0.003 µM; against AChE [1], 32 ± 0.006 µM. In addition, the “SI(COX-1/COX-2)” value at human recombinant COX-2 was found to be 97.61.

As for `CC(=O)O[C@H]1CC[C@](C)(O)[C@]23OC(C)(C)[C@H](C[C@H](OC(=O)c4ccoc4)[C@]12C)[C@H]3OC(=O)c1ccoc1` [Compound 8, 1α-Acetoxy-6β,9β-difuroyloxy-4β-hydroxydihydro-β-agarofuran], the half-inhibitory concentration (IC50) at ovine COX-1 (setting [4]) is 10.59 ± 0.02 µM; on AChE [2], 738 ± 0.007 µM; on human recombinant COX-2, 0.04 ± 0.007 µM. In addition, the “SI(COX-1/COX-2)” value on human recombinant COX-2 is recorded as 264.75.

For the compound `CC(=O)O[C@@H]1[C@H]2[C@@H](O)[C@H](OC(=O)c3ccccc3)[C@]3(C)[C@@H](O)CC[C@@H](C)[C@@]13OC2(C)C` [Compound 13], the figures for the IC50 against ovine COX-1, on human recombinant COX-2 and on AChE [1] were 11.36 ± 0.035 µM, 0.11 ± 0.007 µM and 500 ± 0.03 µM, respectively. The “SI(COX-1/COX-2)” value on human recombinant COX-2 was found to be 103.27.

As to `CC1=CCC[C@@]2(C)CC[C@@H]3C[C@]12OC3(C)C` [Compound 3, α-agarofuran], the figures for the concentration for half-maximal inhibition (IC50) against ovine COX-1, on human recombinant COX-2 and against AChE [1] were 11.36 ± 0.035 µM, 0.17 ± 0.002 µM and 26 ± 0.012 µM, respectively. Further, the “% Displacement of propidium iodide 290 µM” value on PAS of EeAChE is 12.2 ± 0.2%. Moreover, on PAS of EeAChE, the “% Displacement of propidium iodide 340 µM” value stood at 15.8 ± 0.5%. For the same compound, on human recombinant COX-2, the “SI(COX-1/COX-2)” value is 66.82.

Take `CC(=O)OC[C@@]12[C@@H](OC(C)=O)CC[C@@H](C)[C@]13OC(C)(C)[C@H](C[C@@H]2OC(=O)c1ccccc1)[C@H]3OC(C)=O` [Compound 9, 1α,6β,14-triacetoxy-9β-benzyloxydihydro-β-agarofuran]: the concentration for half-maximal inhibition (IC50) against ovine COX-1 was found to be 8.69 ± 0.03 µM; at human recombinant COX-2, 0.07 ± 0.004 µM; at AChE [1], 695 ± 0.001 µM. At human recombinant COX-2, the “SI(COX-1/COX-2)” value stood at 124.14.

On to `Cc1ccc(C(C)C)cc1O` [Carvacrol, reference compound], for which the IC50 on AChE [1] amounted to 45 ± 0.031 µM.
